Test system: SARS-CoV-2 strain USA-WA1/2020
Experiment: microbe, parasite or virus in culture
Format: cell-based
Conditions: Severe acute respiratory syndrome coronavirus 2, HeLa-ACE2, 24 h, HeLa-ACE2 cells, SARS-CoV-2 infection, 24 h; bound printed in cell; read-out: EC50, uM (Hela)

In the case of `C[C@@H]1CN(C(=O)C(=O)NC(C)(C)C(F)(F)F)C[C@H]1C(=O)N[C@@H](C[C@@H]1CCNC1=O)C(=O)COC(F)(F)F` [Compound 293, (3S,4S)-4-methyl-N-((S)-3-oxo-1-((S)-2-oxopyrrolidin-3-yl)-4-(trifluoromethoxy)butan-2-yl)-1-(2-oxo-2-((1,1,1-trifluoro-2-methylpropan-2-yl)amino)acetyl)-pyrrolidine-3-carboxamide], the EC50 is reported as > 1 µM.

Same assay, conditions: Severe acute respiratory syndrome coronavirus 2, HeLa-ACE2, 24 h, HeLa-ACE2 cells, SARS-CoV-2 infection, 24 h; class symbols; read-out: EC50, uM (Hela)

Compared with `CC(C)C[C@H](NC(=O)C(Nc1ccccc1F)C(F)(F)F)C(=O)N[C@@H](C[C@@H]1CCNC1=O)C(=O)COc1c(F)c(F)cc(F)c1F` (stereo partly drawn) [Compound 97, (2S)-4-methyl-N-((S)-3-oxo-1-((S)-2-oxopyrrolidin-3-yl)-4-(2,3,5,6-tetrafluorophenoxy)butan-2-yl)-2-(3,3,3-trifluoro-2-((2-fluorophenyl)-amino)propanamido)-pentanamide], `CC(C)C[C@H](NC(=O)C(=O)Nc1ccccc1C(F)(F)F)C(=O)N[C@@H](C[C@@H]1CCNC1=O)C(=O)COc1c(F)c(F)cc(F)c1F` [Compound 32] is lower in EC50: 0.2 to 0.5 µM for the first, < 0.05 µM for the second. The second is the more potent here.

`CC(C)C[C@H](NC(=O)C(=O)Nc1ccc(F)c(F)c1)C(=O)N[C@@H](C[C@@H]1CCNC1=O)C(=O)COc1c(F)c(F)cc(F)c1F` [Compound 53, N1-(3,4-difluorophenyl)-N2-((S)-4-methyl-1-oxo-1-(((S)-3-oxo-1-((S)-2-oxopyrrolidin-3-yl)-4-(2,3,5,6-tetrafluorophenoxy)butan-2-yl)amino)pentan-2-yl)oxalamide] and `CC(C)C[C@H](NC(=O)C(=O)NCc1ccccc1)C(=O)N[C@@H](C[C@@H]1CCNC1=O)C(=O)COc1c(F)c(F)cc(F)c1F` [Compound 42, N1-benzyl-N2-((S)-4-methyl-1-oxo-1-(((S)-3-oxo-1-((S)-2-oxopyrrolidin-3-yl)-4-(2,3,5,6-tetrafluoro-phenoxy)butan-2-yl)amino)pentan-2-yl)oxalamide] fall in the same range of EC50: 0.05 to 0.2 µM for the first, 0.05 to 0.2 µM for the second.

First: O=C1NCC[C@H]1C[C@H](NC(=O)[C@@H]1CC2(CC2)CN1C(=O)[C@H]1CCCO1)C(=O)COC(F)(F)F [Compound 305, (S)-N-((S)-3-oxo-1-((S)-2-oxopyrrolidin-3-yl)-4-(trifluoromethoxy)butan-2-yl)-5-((R)-tetrahydrofuran-2-carbonyl)-5-azaspiro[2.4]heptane-6-carboxamide]
Second: CC(C)(F)C[C@H](O)C(=O)N1CC2(CC2)C[C@H]1C(=O)N[C@@H](C[C@@H]1CCNC1=O)C(=O)COC(F)(F)F [Compound 350, (S)-5-((S)-4-fluoro-2-hydroxy-4-methylpentanoyl)-N-((S)-3-oxo-1-((S)-2-oxopyrrolidin-3-yl)-4-(trifluoromethoxy)butan-2-yl)-5-azaspiro[2.4]-heptane-6-carboxamide]
The EC50 of the first is higher: 0.2 to 0.5 µM for the first, 0.05 to 0.2 µM for the second.

Compared with `Cc1cc(C(=O)N[C@H](C(=O)N[C@@H](CC(C)C)C(=O)N[C@@H](C[C@@H]2CCNC2=O)C(=O)COc2c(F)c(F)cc(F)c2F)C(C)C)no1` [Compound 115, 5-methyl-N-((S)-3-methyl-1-(((S)-4-methyl-1-oxo-1-(((S)-3-oxo-1-((S)-2-oxopyrrolidin-3-yl)-4-(2,3,5,6-tetrafluorophenoxy)butan-2-yl)amino)pentan-2-yl)amino)-1-oxobutan-2-yl)isoxazole-3-carboxamide], `CC(C)C[C@H](NC(=O)C(=O)N[C@@H]1CCCOC1)C(=O)N[C@@H](C[C@@H]1CCNC1=O)C(=O)COc1c(F)c(F)cc(F)c1F` [Compound 133, N1-((S)-4-methyl-1-oxo-1-(((S)-3-oxo-1-((S)-2-oxopyrrolidin-3-yl)-4-(2,3,5,6-tetrafluorophenoxy)butan-2-yl)amino)pentan-2-yl)-N2-((R)-tetrahydro-2H-pyran-3-yl)oxalamide] is lower in EC50: 0.2 to 0.5 µM for the first, 0.05 to 0.2 µM for the second. The second is the more potent here.

`CC(C)C[C@H](NC(=O)C(=O)NC12CC(C1)C2)C(=O)N[C@@H](C[C@@H]1CCNC1=O)C(=O)COC(F)(F)F` [Compound 191, N1-(bicyclo[1.1.1]-pentan-1-yl)-N2-((S)-4-methyl-1-oxo-1-(((S)-3-oxo-1-((S)-2-oxopyrrolidin-3-yl)-4-(trifluoromethoxy)butan-2-yl)amino)pentan-2-yl)oxalamide] and `COc1cccc(C)c1NC(=O)C(=O)N[C@@H](CC(C)C)C(=O)N[C@@H](C[C@@H]1CCNC1=O)C(=O)COC(F)(F)F` [Compound 165, N1-(2-methoxy-6-methylphenyl)-N2-((S)-4-methyl-1-oxo-1-(((S)-3-oxo-1-((S)-2-oxopyrrolidin-3-yl)-4-(trifluoromethoxy)butan-2-yl)amino)pentan-2-yl)oxalamide] cannot be ordered by EC50: < 0.05 µM for the first, < 0.05 µM for the second.

Molecule `CC[C@@H](O)C(=O)NC(CC1(C)CC1)C(=O)N[C@@H](C[C@@H]1CCNC1=O)C(=O)COC(F)(F)F` (stereo partly drawn) [Compound 372, (2R)-2-hydroxy-N-(3-(1-methylcyclopropyl)-1-oxo-1-(((S)-3-oxo-l-((S)-2-oxopyrrolidin-3-yl)-4-(trifluoromethoxy)butan-2-yl)amino)propan-2-yl)butanamide] has an EC50 of 0.2 to 0.5 µM.

Same assay, conditions: Severe acute respiratory syndrome coronavirus 2, HeLa-ACE2, 24 h, HeLa-ACE2 cells, SARS-CoV-2 infection, 24 h; read-out: EC50, uM (Hela)

`CC1(C[C@H](NC(=O)C(=O)NC23CC(F)(C2)C3)C(=O)N[C@@H](C[C@@H]2CCNC2=O)C(=O)COC(F)(F)F)CCC1` [Compound 573, N1-(3-fluorobicyclo[1.1.1]pentan-1-yl)-N2-((S)-3-(1-methylcyclobutyl)-1-oxo-1-(((S)-3-oxo-1-((S)-2-oxopyrrolidin-3-yl)-4-(trifluoromethoxy)butan-2-yl)amino)propan-2-yl)oxalamide] and `O=C(N[C@@H](CC1CC1)C(=O)N[C@@H](C[C@@H]1CCNC1=O)C(=O)COC(F)(F)F)C(=O)NC12CC(F)(C1)C2` [Compound 509, N1-((S)-3-cyclopropyl-1-oxo-1-(((S)-3-oxo-1-((S)-2-oxopyrrolidin-3-yl)-4-(trifluoromethoxy)butan-2-yl)amino)propan-2-yl)-N2-(3-fluorobicyclo[1.1.1]-pentan-1-yl)oxalamide] cannot be ordered by EC50: < 0.05 µM for the first, < 0.05 µM for the second.

`CC(C)(F)c1cc(C(=O)N2C[C@@H]3CCC[C@@H]3[C@H]2C(=O)N[C@@H](C[C@@H]2CCNC2=O)C(=O)COC(F)(F)F)no1` [Compound 491, (1S,3aR,6aS)-2-(5-(2-fluoropropan-2-yl)isoxazole-3-carbonyl)-N-((S)-3-oxo-1-((S)-2-oxopyrrolidin-3-yl)-4-(trifluoromethoxy)butan-2-yl)octahydrocyclo-penta[c]pyrrole-1-carboxamide] and `CC(C)(C)C[C@@H](O)C(=O)N1C[C@H]2[C@@H]([C@H]1C(=O)N[C@@H](C[C@@H]1CCNC1=O)C(=O)COC(F)(F)F)C2(C)C` [Compound 454, (1R,2S,5S)-3-((R)-2-hydroxy-4,4-dimethylpentanoyl)-6,6-dimethyl-N-((S)-3-oxo-1-((S)-2-oxopyrrolidin-3-yl)-4-(trifluoromethoxy)butan-2-yl)-3-azabicyclo[3.1.0]-hexane-2-carboxamide] cannot be ordered by EC50: < 0.05 µM for the first, < 0.05 µM for the second.

`CC(C)(C[C@H](NC(=O)C(=O)NC12CC(F)(C1)C2)C(=O)N[C@@H](C[C@@H]1CCNC1=O)C(=O)COC(F)(F)F)C(F)F` [Compound 564, N1-((S)-5,5-difluoro-4,4-dimethyl-1-oxo-1-(((S)-3-oxo-1-((S)-2-oxopyrrolidin-3-yl)-4-(trifluoromethoxy)butan-2-yl)amino)pentan-2-yl)-N2-(3-fluorobicyclo[1.1.1]-pentan-1-yl)oxalamide] and `CC1(C)CCC(O)(C(=O)N2CC3(CC3)C[C@H]2C(=O)N[C@@H](C[C@@H]2CCNC2=O)C(=O)COC(F)(F)F)CC1` [Compound 633, (S)-5-(l-hydroxy-4,4-dimethylcyclohexane-1-carbonyl)-N-((S)-3-oxo-1-((S)-2-oxopyrrolidin-3-yl)-4-(trifluoromethoxy)butan-2-yl)-5-azaspiro[2.4]heptane-6-carboxamide] cannot be ordered by EC50: < 0.05 µM for the first, < 0.05 µM for the second.

`CC1(C)[C@@H]2[C@@H](C(=O)N[C@@H](C[C@@H]3CCNC3=O)C(=O)COC(F)(F)F)N(C(=O)[C@@H](O)c3ccccc3F)C[C@@H]21` [Compound 411, (1R,2S,5S)-3-((S)-2-(2-fluorophenyl)-2-hydroxyacetyl)-6,6-dimethyl-N-((S)-3-oxo-1-((S)-2-oxopyrrolidin-3-yl)-4-(trifluoromethoxy)butan-2-yl)-3-azabicyclo-[3.1.0]hexane-2-carboxamide] and `CC1(C)[C@@H]2[C@@H](C(=O)N[C@@H](C[C@@H]3CCNC3=O)C(=O)COC(F)(F)F)N(C(=O)[C@H](O)c3ccccc3F)C[C@@H]21` [Compound 407, (1R,2S,5S)-3-((R)-2-(2-fluorophenyl)-2-hydroxyacetyl)-6,6-dimethyl-N-((S)-3-oxo-1-((S)-2-oxopyrrolidin-3-yl)-4-(trifluoromethoxy)butan-2-yl)-3-azabicyclo[3.1.0]hexane-2-carboxamide] cannot be ordered by EC50: < 0.05 µM for the first, < 0.05 µM for the second.

First: O=C1NCC[C@H]1C[C@H](NC(=O)[C@@H]1CC2(CC2)CN1C(=O)COc1ccc(OC(F)(F)F)cc1)C(=O)COC(F)(F)F [Compound 773, (S)-N-((S)-3-oxo-1-((S)-2-oxopyrrolidin-3-yl)-4-(trifluoromethoxy)butan-2-yl)-5-(2-(4-(trifluoromethoxy)phenoxy)acetyl)-5-azaspiro[2.4]heptane-6-carboxamide]
Second: O=C(NCC(=O)N1CC2(CC2)C[C@H]1C(=O)N[C@@H](C[C@@H]1CCNC1=O)C(=O)COC(F)(F)F)c1ccccc1F [Compound 437, (S)-5-((2-fluorobenzoyl)glycyl)-N-((S)-3-oxo-1-((S)-2-oxopyrrolidin-3-yl)-4-(trifluoromethoxy)butan-2-yl)-5-azaspiro[2.4]heptane-6-carboxamide]
The EC50 of the first is lower: < 0.05 µM for the first, 0.05 to 0.2 µM for the second.

Same assay, conditions: Severe acute respiratory syndrome coronavirus 2, HeLa-ACE2, 24 h; read-out: EC50, uM (Hela)

Molecule `CC(C)C[C@H](NC(=O)C12CC(NC(=O)C(F)(F)F)(CO1)C2)C(=O)N[C@@H](C[C@@H]1CCNC1=O)C(=O)COC(F)(F)F` [Compound 314, N-((S)-4-methyl-1-oxo-1-(((S)-3-oxo-1-((S)-2-oxopyrrolidin-3-yl)-4-(trifluoromethoxy)butan-2-yl)amino)pentan-2-yl)-4-(2,2,2-trifluoroacetamido)-2-oxabicyclo[2.1.1]-hexane-1-carboxamide] has an EC50 of 0.2 to 0.5 µM.

Source: patent US11708348B2, “Protease inhibitors for treatment of coronavirus infections” (The Scripps Research Institute, priority 2021, dated 2023)
